Drawing on US20210154190A1, “SHP2 INHIBITOR COMPOSITIONS AND METHODS FOR TREATING CANCER” (Revolution Medicines, Inc., priority 2018, published 2021), this text covers Cellular sensitivity for one compound.

This assay concerns the target T1, SHP2 A72V (Homo sapiens, UniProt Q06124, A72V).
T1 construct: expressed in transfected cells; host or cells: Flp-In T-REx-293 (T-REx-293-SHP2)
Nature of the assay: EGF-induced pERK AlphaLISA in T-REx-293-SHP2 cells, A72V. The class given is cell-based. To be noted: Variant A72V. How it is done: An experimental system was creating to test the activity of SHP2 mutants on an isogenic background (FIG. 6). The Flp-In T-REx-293 cell line was obtained from Gibco® and cultivated in high glucose DMEM™ containing 2 mM L-glutamine (Hyclone®), supplemented with 10% FBS (Hyclone®), 1% penicillin/streptomycin (Gibco®), 100 μg/mL Zeocin™ (Gibco®), and 15 μg/mL blasticidin (Gibco®) in a humidified cell culture incubator at 37° C., 5% CO2.
Wild type or mutant SHP2 variants were synthesized and subcloned into the pcDNA5/FRT/TO vector (ThermoFisher). Plasmids were co-transfected with the pOG44 Flp recombinase expression plasmid (ThermoFisher®) into Flp-In T-REx-293 cells using X-tremegene 9 DNA transfection reagent (Sigma®), according to the manufacturer's instructions. […]
For the final 5 minutes of drug treatment, cells were stimulated with 50 ng/mL Epidermal Growth Factor (Sigma®). […] Samples were read using an EnVision Multilabel Plate Reader (Perkin Elmer®) using standard AlphaLISA settings. Assay data was plotted and EC50 values were determined using four-parameter concentration-response model in GraphPad Prism 7. […]
Background: In Alpha technology, singlet oxygen from a donor bead excites a nearby acceptor bead.

For `Cc1nc(N2CCC3(CC2)CO[C@@H](C)[C@H]3N)c(CO)nc1-c1cccc(Cl)c1Cl` [Compound B], the Cellular sensitivity result is reported as “no (Sensitive if IC50 < 2000 nM)”.
